Measurements: ChEMBL document CHEMBL3885861, “Open TG-GATES”

Species on record: Rattus norvegicus
Assay: Open TG-GATES - Regimen: Single
Format: toxicity, organism-based, Sprague-Dawley
Design: regimen Single, gender Male, age 6 weeks
Details: in vivo, po, 100 mg/kg, route gavage, dose level Low; for APTT / Bas / Eos / Fbg / Hb / Ht / Lym / MCH / MCHC / MCV / Mono / Neu / PT / Plat / RBC / Ret / WBC: tissue Blood; for KIDNEY_L / KIDNEY_R / KIDNEY_TOTAL: tissue Kidney; for LIVER: tissue Liver; for A/G / ALP / ALT / AST / BUN / CRE / Ca / Cl / DBIL / GLC / IP / LDH / Na / PL / RALB / TBIL / TC / TG / TP / gamma-GTP: tissue Plasma

NC(N)=Nc1nc(CSCCC(N)=NS(N)(=O)=O)cs1 [FAMOTIDINE]
TERMINAL_BW (3 h): 213.7 g | APTT (3 h): 19.6 s | Bas (3 h): 0% | Eos (3 h): 0.6% | Fbg (3 h): 217.4 mg/dL | Hb (3 h): 13.5 g/dL | Ht (3 h): 38.2% | Lym (3 h): 71.2% | MCH (3 h): 22.6 pg | MCHC (3 h): 35.3% | MCV (3 h): 64.1 fL | Mono (3 h): 2.4% | Neu (3 h): 24% | PT (3 h): 12.3 s | Plat (3 h): 112.1 x10_4/uL | RBC (3 h): 596.2 x10_4/ul | Ret (3 h): 7.2% | WBC (3 h): 80 x10_2/uL | KIDNEY_L (3 h): 1 g | KIDNEY_R (3 h): 1 g | KIDNEY_TOTAL (3 h): 1.9 g | LIVER (3 h): 10.3 g | A/G (3 h): 1.7 | ALP (3 h): 1057.6 IU/L | ALT (3 h): 38 IU/L | AST (3 h): 64.8 IU/L | BUN (3 h): 9.4 mg/dL | CRE (3 h): 0.4 mg/dL | Ca (3 h): 10.5 mg/dL | Cl (3 h): 104.2 meq/L | DBIL (3 h): 0.076 mg/dL | GLC (3 h): 196.2 mg/dL | IP (3 h): 9.2 mg/dL | LDH (3 h): 186.2 IU/L | Na (3 h): 141 meq/L | PL (3 h): 144.6 mg/dL | RALB (3 h): 3.4 g/dL | TBIL (3 h): 0.1 mg/dL | TC (3 h): 79 mg/dL | TG (3 h): 56.6 mg/dL | TP (3 h): 5.5 g/dL | gamma-GTP (3 h): 1 IU/L | TERMINAL_BW (6 h): 212.2 g | APTT (6 h): 18.5 s | Bas (6 h): 0% | Eos (6 h): 0.8% | Fbg (6 h): 222.2 mg/dL | Hb (6 h): 13.4 g/dL | Ht (6 h): 37.5% | Lym (6 h): 71.4% | MCH (6 h): 22.2 pg | MCHC (6 h): 35.7% | MCV (6 h): 62.3 fL | Mono (6 h): 2.6% | Neu (6 h): 22.8% | PT (6 h): 12.4 s | Plat (6 h): 120.7 x10_4/uL | RBC (6 h): 602.6 x10_4/ul | Ret (6 h): 6.8% | WBC (6 h): 98.6 x10_2/uL | KIDNEY_L (6 h): 1 g | KIDNEY_R (6 h): 0.9 g | KIDNEY_TOTAL (6 h): 1.9 g | LIVER (6 h): 9.4 g | A/G (6 h): 1.5 | ALP (6 h): 808.4 IU/L | ALT (6 h): 34.2 IU/L | AST (6 h): 68 IU/L | BUN (6 h): 9.4 mg/dL | CRE (6 h): 0.4 mg/dL | Ca (6 h): 10.7 mg/dL | Cl (6 h): 103.2 meq/L | DBIL (6 h): 0.068 mg/dL | GLC (6 h): 189.4 mg/dL | IP (6 h): 9 mg/dL | LDH (6 h): 202 IU/L | Na (6 h): 140.4 meq/L | PL (6 h): 141.2 mg/dL | RALB (6 h): 3.2 g/dL | TBIL (6 h): 0.1 mg/dL | TC (6 h): 82 mg/dL | TG (6 h): 60 mg/dL | TP (6 h): 5.4 g/dL | gamma-GTP (6 h): 1.4 IU/L | TERMINAL_BW (9 h): 209.4 g | APTT (9 h): 18.3 s | Bas (9 h): 0% | Eos (9 h): 0.8% | Fbg (9 h): 232.2 mg/dL | Hb (9 h): 13.4 g/dL | Ht (9 h): 37.1% | Lym (9 h): 74.2% | MCH (9 h): 22 pg | MCHC (9 h): 36% | MCV (9 h): 61.2 fL | Mono (9 h): 2.2% | Neu (9 h): 19.2% | PT (9 h): 12.1 s | Plat (9 h): 116.7 x10_4/uL | RBC (9 h): 606.6 x10_4/ul | Ret (9 h): 7% | WBC (9 h): 87.3 x10_2/uL | KIDNEY_L (9 h): 0.9 g | KIDNEY_R (9 h): 1 g | KIDNEY_TOTAL (9 h): 1.9 g | LIVER (9 h): 9 g | A/G (9 h): 1.6 | ALP (9 h): 851.2 IU/L | ALT (9 h): 31.2 IU/L | AST (9 h): 61.2 IU/L | BUN (9 h): 10.2 mg/dL | CRE (9 h): 0.4 mg/dL | Ca (9 h): 10.5 mg/dL | Cl (9 h): 103.6 meq/L | DBIL (9 h): 0.064 mg/dL | GLC (9 h): 200.8 mg/dL | IP (9 h): 8.8 mg/dL | LDH (9 h): 135.4 IU/L | Na (9 h): 141 meq/L | PL (9 h): 140.8 mg/dL | RALB (9 h): 3.4 g/dL | TBIL (9 h): 0.1 mg/dL | TC (9 h): 80.6 mg/dL | TG (9 h): 62.4 mg/dL | TP (9 h): 5.5 g/dL | gamma-GTP (9 h): 0.8 IU/L | TERMINAL_BW (24 h): 225.3 g | APTT (24 h): 19.8 s | Bas (24 h): 0% | Eos (24 h): 1% | Fbg (24 h): 229.6 mg/dL | Hb (24 h): 13.3 g/dL | Ht (24 h): 37.2% | Lym (24 h): 78.2% | MCH (24 h): 22.3 pg | MCHC (24 h): 35.8% | MCV (24 h): 62.2 fL | Mono (24 h): 2.2% | Neu (24 h): 16.2% | PT (24 h): 12 s | Plat (24 h): 121.8 x10_4/uL | RBC (24 h): 599.4 x10_4/ul | Ret (24 h): 6.1% | WBC (24 h): 86.8 x10_2/uL | KIDNEY_L (24 h): 1 g | KIDNEY_R (24 h): 1 g | KIDNEY_TOTAL (24 h): 2 g | LIVER (24 h): 10.8 g | A/G (24 h): 1.4 | ALP (24 h): 990 IU/L | ALT (24 h): 40.6 IU/L | AST (24 h): 68.2 IU/L | BUN (24 h): 14.2 mg/dL | CRE (24 h): 0.4 mg/dL | Ca (24 h): 10.6 mg/dL | Cl (24 h): 104.2 meq/L | DBIL (24 h): 0.076 mg/dL | GLC (24 h): 199.4 mg/dL | IP (24 h): 7.7 mg/dL | LDH (24 h): 198.4 IU/L | Na (24 h): 140.6 meq/L | PL (24 h): 145.8 mg/dL | RALB (24 h): 3.3 g/dL | TBIL (24 h): 0.1 mg/dL | TC (24 h): 74.2 mg/dL | TG (24 h): 82.6 mg/dL | TP (24 h): 5.6 g/dL | gamma-GTP (24 h): 0.6 IU/L
